Test results reported in paper PMC6798786 (Brain Communications, 2019).
Like-named read-outs stand apart in the source and are kept apart here.

Experiments:
[1] = molecular target: 5-HT7; details: known drugs of Table 1; reference not given; cited from earlier work
[2] = molecular target: T1, human 5-HT2AR (Homo sapiens, UniProt P28223); details: known drugs of Table 1; reference not given; read-out: Ki 5-HT2A, Table 1 known drugs; cited from earlier work
[3] = molecular target: 5-HT1A; details: known drugs of Table 1; reference not given; cited from earlier work
[4] = system: scn1lab mutant zebrafish; test: local field potential (LFP) electrophysiology, electrographic seizure events; assay type: in vivo, Danio rerio; details: 250 µM; 10 min recording epoch
Description: Using a glass micro-electrode positioned under an upright microscope, local field potential (LFP) recordings were obtained from forebrain or optic tectum structures, as described ([Baraban et al., 2005]). Agarose-embedded LFP recording sessions (10 min in duration) were obtained using Axoclamp software (Molecular Devices; Sunnyvale, CA, USA) and sampled at 1 kHz. Epileptiform events were identified post hoc. These were classified as multi-spike or poly-spike upward or downward membrane deflections greater than 3× baseline noise level and 150–250 ms in duration (interictal-like) or greater than 5× baseline noise, multi-spike and >500 ms in duration (ictal-like); both events were counted using threshold detection settings in Clampfit (Molecular Devices; Sunnyvale, CA, USA). Agarose-embedded larvae were continuously monitored for blood flow and heart rate using an Axiocam digital camera at video frame rate.
Monitoring electrographic brain activity to confirm seizure suppression is an essential assay to eliminate false positives from behavioural testing ([Griffin et al., 2018]). By placing a micro-electrode into a visually identified brain region of an agar-immobilized zebrafish larval, stable LFP recordings can be monitored for several hours ([Baraban, 2013]). At 5 days post-fertilization, LFP recordings of scn1Lab zebrafish larvae show an average of 250 abnormal electrographic seizure events during a 10 min recording epoch.

[5] = system: scn1lab mutant zebrafish; test: locomotion (mean swim velocity) seizure-like behaviour assay in scn1lab mutant zebrafish larvae; assay type: in vivo, Danio rerio; details: for effect on seizure-like swim behaviour, commercially available compounds: three concentrations, 30 and 90 min exposure; for change in vivo at 100 µM / change in vivo at 250 µM: Danio rerio
Description: For locomotion studies, zebrafish larvae (5 days post-fertilization) were placed into a single well of a clear flat-bottomed 96-well microplate containing embryo media. Sex determination is not possible at this stage of development. All drug screening experiments were conducted in an unbiased manner by investigators blinded to the test compounds and all files coded for post hoc analysis. The 96-well plate containing larvae was then placed inside a DanioVision box where they were allowed to acclimate (20 min; room temperature). EthoVision XT software (DanioVision, Noldus Information Technology) was used to obtain locomotion plots (10 min in duration). Seizure scoring was performed, as described ([Baraban et al., 2005]). All locomotion plots were analysed for distance travelled (in millimetres) and mean velocity (in millimetres per second). After 90 min of drug exposure larvae were examined for toxic side-effects. Compounds that decreased or stopped the larva heartbeat, or reduced or eliminated the escape response when touched, were considered toxic.
For behaviour analysis, the threshold for a change in mean swim velocity ≥40% is considered significant (>1.5× SD of 250 control treated scn1lab). Unless otherwise indicated, all data in this manuscript are presented as the mean ± standard error of the mean. […] Statistically significant differences are indicated with asterisks (*P < 0.05; **P < 0.01; ***P < 0.001). […]

[6] = molecular target: 5-HT transporter; details: known drugs of Table 1; reference not given; cited from earlier work
[7] = molecular target: T1, human 5-HT2AR; test: radioligand binding (NIMH PDSP)
Description: (§1) All in vitro binding assay and Ki data studies were performed by the US National Institute of Mental Health Psychoactive Drug Screening Program (NIMH PDSP). For these studies, drugs were screened against recombinant, stably expressed human 5-HT2AR, 5-HT2BR, 5-HT2CR and H1, as described at https://pdspdb.unc.edu/pdspWeb/ ([Besnard et al., 2012]).

[8] = molecular target: T2, human H1 (Homo sapiens, UniProt P35367); test: radioligand binding (NIMH PDSP); details: read-out: Ki H1
T2 sequence (P35367 whole entry): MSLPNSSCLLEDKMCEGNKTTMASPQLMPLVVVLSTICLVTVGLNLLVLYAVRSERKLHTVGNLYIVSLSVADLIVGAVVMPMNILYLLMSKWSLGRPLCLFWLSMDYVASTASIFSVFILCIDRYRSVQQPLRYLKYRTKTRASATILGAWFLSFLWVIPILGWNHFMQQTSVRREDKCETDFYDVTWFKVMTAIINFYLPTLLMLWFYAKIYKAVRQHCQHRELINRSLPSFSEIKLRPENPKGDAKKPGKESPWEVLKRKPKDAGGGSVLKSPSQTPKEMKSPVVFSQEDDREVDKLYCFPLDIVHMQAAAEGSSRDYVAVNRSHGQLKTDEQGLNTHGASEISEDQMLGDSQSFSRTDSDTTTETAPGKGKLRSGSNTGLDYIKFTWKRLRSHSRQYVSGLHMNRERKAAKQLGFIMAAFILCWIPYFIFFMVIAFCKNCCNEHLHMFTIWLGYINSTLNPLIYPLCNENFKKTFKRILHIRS
Description: as §1

[9] = molecular target: T3, human 5-HT2CR (Homo sapiens, UniProt P28335); test: radioligand binding (NIMH PDSP)
T3 sequence (P28335 33-458): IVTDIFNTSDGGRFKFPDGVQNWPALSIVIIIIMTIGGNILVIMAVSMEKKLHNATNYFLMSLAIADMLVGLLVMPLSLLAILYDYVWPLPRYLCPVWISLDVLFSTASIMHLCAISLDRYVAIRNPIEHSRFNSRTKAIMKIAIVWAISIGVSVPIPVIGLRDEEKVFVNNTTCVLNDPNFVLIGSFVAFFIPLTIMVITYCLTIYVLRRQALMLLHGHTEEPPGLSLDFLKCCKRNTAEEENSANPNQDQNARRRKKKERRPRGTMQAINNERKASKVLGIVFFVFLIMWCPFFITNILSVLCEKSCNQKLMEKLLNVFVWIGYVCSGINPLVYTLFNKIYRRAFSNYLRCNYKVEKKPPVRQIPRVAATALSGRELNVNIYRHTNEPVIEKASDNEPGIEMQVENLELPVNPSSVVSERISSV
Description: as §1

[10] = molecular target: T4, human 5-HT2BR (Homo sapiens, UniProt P41595); test: radioligand binding (NIMH PDSP); details: read-out: Ki 5-HT2BR
T4 sequence (P41595 whole entry): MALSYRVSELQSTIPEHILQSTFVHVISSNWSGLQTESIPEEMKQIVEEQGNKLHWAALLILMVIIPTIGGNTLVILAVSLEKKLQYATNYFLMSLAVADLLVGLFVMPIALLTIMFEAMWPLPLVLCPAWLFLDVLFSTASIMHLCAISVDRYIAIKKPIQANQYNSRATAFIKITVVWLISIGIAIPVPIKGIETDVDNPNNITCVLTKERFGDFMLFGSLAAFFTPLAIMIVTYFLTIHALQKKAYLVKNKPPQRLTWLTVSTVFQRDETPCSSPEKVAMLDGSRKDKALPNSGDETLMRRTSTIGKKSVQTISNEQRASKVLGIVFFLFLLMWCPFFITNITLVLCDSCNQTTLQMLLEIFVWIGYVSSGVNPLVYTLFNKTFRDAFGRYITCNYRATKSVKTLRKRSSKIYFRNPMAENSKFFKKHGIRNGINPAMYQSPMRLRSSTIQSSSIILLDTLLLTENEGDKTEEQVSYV
Description: as §1

[11] = system: human 5-HT2R; test: radioligand binding (NIMH PDSP), any 5-HT2R subtype; details: 5-HT2AR, 5-HT2BR, 5-HT2CR
Description: as §1
Additionally, 5-HT2R modulating compounds exert antiepileptic activity in both preclinical ([Sourbron et al., 2016]; [Griffin et al., 2017]) and clinical studies ([Griffin et al., 2017]; [Schoonjans et al., 2017]; [Kauppila et al., 2018]). […] […].

[12] = dissolution of compound at screening concentration; details: 250 µM
Description: Ten millimolars of compound stock solutions were made in dimethyl sulfoxide and then diluted in embryo medium for assays.

[13] = molecular target: Norepinephrine transporter; details: known drugs of Table 1; reference not given; cited from earlier work
[14] = molecular target: T4, human 5-HT2BR
[15] = molecular target: T2, human H1; details: known drugs of Table 1; reference not given; read-out: Ki Histamine H1, Table 1 known drugs; cited from earlier work
[16] = molecular target: 5-HT1B; details: known drugs of Table 1; reference not given; cited from earlier work
[17] = molecular target: Histamine H3; details: known drugs of Table 1; reference not given; cited from earlier work
[18] = molecular target: 5-HT6; details: known drugs of Table 1; reference not given; cited from earlier work
[19] = molecular target: 5-HT1D; details: known drugs of Table 1; reference not given; cited from earlier work
[20] = molecular target: T3, human 5-HT2CR
[21] = use as anorectic; ref Abenhaim et al., 1996; Khan et al., 1998; cited from earlier work
[22] = molecular target: Adrenergic alpha1B; details: known drugs of Table 1; reference not given; cited from earlier work
[23] = system: scn1lab mutant zebrafish; design: method as in Dinday and Baraban, 2015; Sourbron et al., 2016; details: ref Dinday and Baraban, 2015; Sourbron et al., 2016; cited from earlier work
[24] = molecular target: Adrenergic alpha1A; details: read-out: Ki Adrenergic alpha1A; known drugs of Table 1; reference not given; cited from earlier work
[25] = molecular target: DOPAMINE D2; details: known drugs of Table 1; reference not given; cited from earlier work
[26] = molecular target: Adrenergic alpha2C; details: read-out: Ki Adrenergic alpha2C; known drugs of Table 1; reference not given; cited from earlier work
[27] = molecular target: Adrenergic alpha2A; details: read-out: Ki Adrenergic alpha2A; known drugs of Table 1; reference not given; cited from earlier work
[28] = molecular target: Adrenergic beta2; details: read-out: Ki Adrenergic beta2; known drugs of Table 1; reference not given; cited from earlier work
[29] = molecular target: Adrenergic alpha2B; details: read-out: Ki Adrenergic alpha2B; known drugs of Table 1; reference not given; cited from earlier work
[30] = molecular target: Histamine H2; details: known drugs of Table 1; reference not given; cited from earlier work
[31] = molecular target: Dopamine transporter; details: known drugs of Table 1; reference not given; cited from earlier work
[32] = molecular target: 5-HT5; details: known drugs of Table 1; reference not given; cited from earlier work
[33] = molecular target: DOPAMINE D4; details: read-out: Ki DOPAMINE D4; known drugs of Table 1; reference not given; cited from earlier work
[34] = molecular target: DOPAMINE D1; details: read-out: Ki DOPAMINE D1; known drugs of Table 1; reference not given; cited from earlier work
[35] = molecular target: Adrenergic beta1; details: read-out: Ki Adrenergic beta1; known drugs of Table 1; reference not given; cited from earlier work
[36] = molecular target: DOPAMINE D5; details: read-out: Ki DOPAMINE D5; known drugs of Table 1; reference not given; cited from earlier work
[37] = molecular target: 5-HT1F; details: known drugs of Table 1; reference not given; cited from earlier work
[38] = molecular target: 5-HT1E; details: known drugs of Table 1; reference not given; cited from earlier work
[39] = recombinant, stably expressed human receptor, clemizole analogues
[40] = read-out: % change in velocity, individual larva 1 (heat map)
[41] = read-out: % change in velocity, individual larva 2 (heat map)
[42] = read-out: % change in velocity, individual larva 3 (heat map)
[43] = read-out: % change in velocity, individual larva 4 (heat map)
[44] = read-out: % change in velocity, individual larva 5 (heat map)
[45] = read-out: % change in velocity, individual larva 6 (heat map)
[46] = read-out: mean velocity change from six fish, Trial 1

T1 sequence (P28223 whole entry): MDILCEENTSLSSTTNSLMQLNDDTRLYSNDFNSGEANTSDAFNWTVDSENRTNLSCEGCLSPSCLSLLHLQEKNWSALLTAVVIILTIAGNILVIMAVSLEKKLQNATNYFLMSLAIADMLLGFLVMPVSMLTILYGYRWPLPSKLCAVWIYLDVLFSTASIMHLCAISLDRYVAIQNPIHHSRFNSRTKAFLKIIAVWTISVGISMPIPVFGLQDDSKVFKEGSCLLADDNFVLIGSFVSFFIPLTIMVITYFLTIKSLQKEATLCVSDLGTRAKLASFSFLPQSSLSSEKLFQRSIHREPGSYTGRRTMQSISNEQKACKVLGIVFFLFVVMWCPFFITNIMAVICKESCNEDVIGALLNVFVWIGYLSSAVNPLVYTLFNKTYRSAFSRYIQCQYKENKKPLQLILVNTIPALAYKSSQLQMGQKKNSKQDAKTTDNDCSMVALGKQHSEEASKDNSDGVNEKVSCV

CC(N)Cc1ccc2ccoc2c1 (stereo not shown) [Compound 6-APB, 6-(2-aminopropyl)benzofuran]
Ki [1]: 155 nM
Ki [2]: 1930 nM
Ki [3]: 1280 nM
effect on frequency of electrographic seizure events (LFP) [4]: significantly suppressed the frequency of electrographic seizure events
effect on seizure-like swim behaviour, commercially available compounds [5]: suppressed convulsive swim behaviours in a concentration-dependent manner
Ki [6]: 2700 nM

c1ccc2c(c1)nc(CN1CCCC1)n2CC1CCOCC1 [Compound 15]
Ki [7, 39]: > 10000 nM
Ki [8, 39]: 865 nM
Ki [9, 39]: > 10000 nM
Ki [10, 39]: > 10000 nM
binding to any human 5-HT2R [11]: no significant binding

FC1(F)CCC(Cn2c(CN3CCCC3)nc3ccccc32)CC1 [Compound 17]
Ki [7, 39]: > 10000 nM
Ki [8, 39]: 137 nM
Ki [9, 39]: > 10000 nM
Ki [10, 39]: > 10000 nM
binding to any human 5-HT2R [11]: no significant binding

CC(C)(C)OC(=O)N1CCN(Cc2nc3ccccc3n2Cc2ccc(Cl)cc2)CC1 [Compound 25]
going into solution at screening concentration [12]: failed to go into solution
Ki [7]: 2380 nM
Ki [8]: 76 nM
Ki [9]: 2260 nM
Ki [10]: 482 nM
change in vivo at 100 µM [5, 40]: -56%
change in vivo at 250 µM [5, 40]: -87%
change in vivo at 100 µM [5, 41]: 91.3%
change in vivo at 250 µM [5, 41]: -92.4%
change in vivo at 100 µM [5, 42]: -65.8%
change in vivo at 250 µM [5, 42]: -76.5%
change in vivo at 100 µM [5, 43]: 78.7%
change in vivo at 250 µM [5, 43]: -56.9%
change in vivo at 100 µM [5, 44]: 35.7%
change in vivo at 250 µM [5, 44]: -100%
change in vivo at 100 µM [5, 45]: 153%
change in vivo at 250 µM [5, 45]: -23.6%
change in vivo at 100 µM [5, 46]: 42%
change in vivo at 250 µM [5, 46]: -82.5%
change in vivo at 100 µM ([5]; read-out: mean velocity change from six fish, Trial 2): 42%

Clc1ccc(Cn2c(CN3CCCC3)nc3ccccc32)cc1 [clemizole]
Ki [1]: > 10000 nM
Ki [13]: > 10000 nM
Ki ([14]; known drugs of Table 1; reference not given; read-out: Ki 5-HT2B, Table 1 known drugs; cited from earlier work): 25 nM
Ki [15]: 1.3 nM
Ki [2]: 239 nM
Ki [16]: > 10000 nM
Ki [17]: 402 nM
Ki [3]: > 10000 nM
Ki [18]: > 10000 nM
Ki [19]: > 10000 nM
Ki ([20]; known drugs of Table 1; reference not given; read-out: Ki 5-HT2C, Table 1 known drugs; cited from earlier work): 197 nM

CCNC(C)Cc1cccc(C(F)(F)F)c1 (stereo not shown) [fenfluramine]
Ki [1]: 7310 nM
patients with heart valve defects [21]: ~25%
Ki [22]: 142 nM
Ki [16]: 1840 nM
suppression of spontaneous seizures in scn1lab zebrafish (earlier work) [23]: effective in suppressing spontaneous seizures
Ki [18]: 9080 nM
Ki [19]: 1260 nM

C[C@H]1CNCCc2ccc(Cl)cc21 [lorcaserin]
Ki [1]: 636 nM
Ki [13]: 1400 nM
Ki [22]: > 10000 nM
Ki [24]: > 10000 nM
Ki [25]: > 10000 nM
Ki [26]: > 10000 nM
Ki [27]: > 10000 nM
Ki [28]: > 10000 nM
Ki [29]: > 10000 nM
Ki [3]: 700 nM
Ki [30]: > 10000 nM
Ki [31]: > 10000 nM
Ki [32]: 3710 nM
Ki [33]: > 10000 nM
Ki [34]: > 10000 nM
Ki [18]: 1980 nM
Ki [35]: > 10000 nM
Ki [36]: > 10000 nM
Ki [6]: 990 nM

CC[C@@H](CO)NC(=O)[C@@H]1C=C2c3cccc4[nH]cc(c34)C[C@H]2N(C)C1 [methylergonovine]
Ki ([14]; read-out: Ki 5-HT2B, Table 1 known drugs; known drugs of Table 1; reference not given; cited from earlier work): 2.2 nM
Ki [37]: 31 nM
effect on frequency of electrographic seizure events (LFP) [4]: significantly suppressed the frequency of electrographic seizure events
Ki ([20]; read-out: Ki 5-HT2C, Table 1 known drugs; known drugs of Table 1; reference not given; cited from earlier work): 4.6 nM
effect on seizure-like swim behaviour, commercially available compounds [5]: suppressed convulsive swim behaviours in a concentration-dependent manner
Ki [38]: 89.1 nM
